In paper PMC6936348, “Reactivation of Epstein–Barr virus by a dual-responsive fluorescent EBNA1-targeting agent with Zn^2+-chelating function” (Proceedings of the National Academy of Sciences of the …, 2019):

Legend:
[1] = system: EBNA1 monomer homodimerization; details: peptide P4; cited from earlier work
Text: (§1) Epstein–Barr nuclear antigen 1 (EBNA1) is the only viral protein expressed in nearly all forms of EBV latency and its associated cancers which plays a vital role in the maintenance of viral genome ([3]). EBNA1 is also important for the transcriptional activation of some other EBV latency genes ([4]). Homodimerization of EBNA1 is known to be critical for EBNA1–DNA binding and the subsequent functions of oriP (latent origin of replication), including viral DNA replication and segregation, maintenance of the EBV episomal genome, and transcriptional activation ([5]). Thus, EBNA1 not only serves as ...

EBV-infected cells = details: peptide P4; cited from earlier work
Text: as §1

[2] = Fluorescence response toward Zn2+; format: binding; details: 2 µM probe, excitation 337 nm
[3] = system: EBV-positive NPC43, C666-1 and Raji cells; test: MTT cytotoxicity, EBV-positive cell panel; format: cell-based; details: 1 to 20 µM, 5 d
[4] = system: EBV-positive C666-1 and NPC43 cells; test: Two-photon imaging, subcellular localization in EBV-positive cells; format: cell-based; details: 10 µM, 3 h, two-photon λex 700 nm
[5] = system: Rta, BMRF1, gp350/220 in NPC43 cells; test: Western blot of lytic proteins in NPC43; format: cell-based, Epstein–Barr virus; details: 10 µM, 7 d
Text: Fig. 5. EBV lytic induction analysis of EBV-positive tumors and cells in response to the EBNA1 probes. (A) IHC analysis of lytic proteins Zta, BMRF1, and VCA-p18 in the transplanted C666-1–derived tumor tissues as described in Fig. 4 E–G. Representative results are shown. […] Insets (in the red boxes) are the enlarged images to indicate the cellular localization of the 3 proteins. Negative control staining images are included for the mouse antibodies (mAb) against Zta and BMRF1 and for the rat antibody (rAb) against VCA-p18. Magnification, 400×. […] TPA/NaB (20 ng/mL TPA, 3 mM NaB) serves as a positive control of lytic induction. The presence of these 4 lytic proteins is indicated by red signals. The nuclei were stained with DAPI. […] Acetylated histone H3 (Ac-Histone H3) was also detected. β-actin serves as the loading control. […] The gene expression was analyzed by qRT-PCR. The fold change of relative gene expression after each treatment was compared with the solvent control (DMSO). Data are expressed as the means ± CI.
Western blot analysis of Zta, Rta, BMRF1, and gp350/220 was performed as reported ([41]). The Rta antibody was supplied from Argene (Verniolle) and the β-actin antibody for loading control was supplied from Cell Signaling Technology. Antibodies against Zta, BMRF1, gp350/220, Dicer1, and PML were the ones used for IF staining. A 1:400 dilution of the primary antibodies was used.

[6] = system: infectious EBV particles from HONE-1-EBV cells; test: EBV infection assay (Raji cell assay, virions from HONE-1-EBV); format: cell-based, Epstein–Barr virus; details: 10 µM, 4 d, triplicate, P = 0.009 (ZRL5P4), P = 0.06 (ZRL5P2)
HeLa xenograft = details: 4 μg/injection every three days, 19 days, vs control
C666-1 xenograft = test: C666-1 xenograft, intratumoral injection; details: 4 µg per injection twice weekly, 18 d, n = 5
[7] = biological target: the molecule itself; test: self-association assay read by SDS-PAGE and anti-His Western blot

Molecule: CAhxYFMVFGGRrRK [P4]
- EBNA1 homodimerization [1]: able to interfere with the homodimerization of the EBNA1 monomer
- EBV-infected cell growth (EBV-infected cells): suppress EBV-infected cell growth

Molecule: YFMVF [ZRL5P2]
- Emission change upon addition of Zn2+ ([2]; 2 equiv. Zn2+, CH3CN/0.05 M Hepes pH 7.4, 50:50): slightly blue-shifted emission
- Maximum emission wavelength, without Zn2+ ([2]; CH3CN/0.05 M Hepes pH 7.4, 50:50, absence of Zn2+): 448 nm
- Maximum emission wavelength, with Zn2+ ([2]; CH3CN/0.05 M Hepes pH 7.4, 50:50, presence of Zn2+): 445 nm
- Growth-inhibitory effect, comparison [3]: the least efficient one
- Subcellular localization [4]: only found in the cytoplasm
- Rta and BMRF1 expression [5]: much weaker than those of ZRL5P4
- Virion production versus DMSO control [6]: 2.6 fold
- Body weights (HeLa xenograft): did not cause any significant changes in body weights
- Tumor growth (C666-1 xenograft): did not significantly affect tumor growth

B1: Full-length EBNA1 (residues 1 to 641) with an N-terminal His tag (ab138345; Abcam) (natural protein)
chain: MSDEGPGTGPGNGLGEKGDTSGPEGSGGSGPQRRGGDNHGRGRGRGRGRGGGRPGAPGGSGSGPRHRDGVRRPQKRPSCIGCKGTHGGTGAGAGAGGAGAGGAGAGGGAGAGGGAGGAGGAGGAGAGGGAGAGGGAGGAGGAGAGGGAGAGGGAGGAGAGGGAGGAGGAGAGGGAGAGGGAGGAGAGGGAGGAGGAGAGGGAGAGGAGGAGGAGAGGAGAGGGAGGAGGAGAGGAGAGGAGAGGAGAGGAGGAGAGGAGGAGAGGAGGAGAGGGAGGAGAGGGAGGAGAGGAGGAGAGGAGGAGAGGAGGAGAGGGAGAGGAGAGGGGRGRGGSGGRGRGGSGGRGRGGSGGRRGRGRERARGGSRERARGRGRGRGEKRPRSPSSQSSSSGSPPRRPPPGRRPFFHPVGEADYFEYHQEGGPDGEPDVPPGAIEQGPADDPGEGPSTGPRGQGDGGRRKKGGWFGKHRGQGGSNPKFENIAEGLRALLARSHVERTTDEGTWVAGVFVYGGSKTSLYNLRRGTALAIPQCRLTPLSRLPFGMAPGPGPQPGPLRESIVCYFMVFLQTHIFAEVLKDAIKDLVMTKPAPTCNIRVTVCSFDDGVDLPPWFPPMVEGAAAEGDDGDDGDEGGDGDEGEEGQE
notes: source: bought: Abcam (ab138345); not shown: His tag, N-terminal, kept
- stoichiometry N [7]: 2
